{"source": "patent US20130158362A1", "about": "(INFACARE PHARMACEUTICAL CORPORATION, priority 2011, published 2013)", "key": {"[1]": {"tested_on": "term and late preterm subjects with hyperbilirubinemia", "experiment": "Phase 2b trial: need for phototherapy/exchange transfusion, time to PT, duration of PT, time to hospital discharge", "assay_type": "in vivo, human", "details": "for Time to discharge, Mean: from treatment; for Time to PT (range): subjects who needed PT", "procedure": "PT was standardized for this study. TSB levels were initially assessed at 6 hours after IM injection to determine if PT was necessary. If the subject met the AAP Guidelines for starting PT, PT was initiated, and if the criteria were not met at the time, the subjects continued in the study until the next TSB level assessment (at 12, 24, and 48 hours following IMP injection). If, at any of these time points, the subject met the criteria for initiation of PT per AAP Guidelines, then PT was started.\nIn subjects receiving PT, determinations to assess whether or not PT was still required were done every 6 hours (±15 min); if the TSB was declining over 2 of these 6 hour assessments, TSB assessments could be done every 12 hours (±15 min). PT was stopped after 1 declining TSB assessment had been reviewed and the TSB level had declined to at least 2 mg/dL below the threshold for PT (as determined by the age of the subject when the blood was collected). As part of the clinical management of the subject, once PT was stopped, a TSB assessment was performed at approximately 6 hours later to assure there was no rebound in the bilirubin level. If the TSB rebounded above the threshold for PT, further clinical management was at the discretion of the principal investigator. After completion of Visit 4 (Day 30), parents/guardians were asked to enroll the completed subjects into a long term safety follow-up study.\nThe Secondary Efficacy Endpoints were the change from baseline in unadjusted TSB at 48 hours after treatment, change from baseline in adjusted and unadjusted TSB at various other time points after treatment, percent change from baseline in unadjusted TSB, proportion of subjects who require PT/exchange transfusion (ET), time to PT/ET, duration of PT and time to hospital discharge.\nAnalysis of Efficacy Parameters: The primary efficacy analysis applied the analysis of covariance (ANCOVA) method to determine if there was a significant difference between treatment groups in change in adjusted TSB levels from baseline to 48 hours post baseline after controlling for the effects of gestational age and adjusted baseline TSB levels. If assumptions of ANCOVA appeared to be violated, a Wilcoxon rank-sum test could be performed instead. Time-to-event variables were analyzed using the Kaplan-Meier method, and Kaplan-Meier survival curves were presented."}, "[2]": {"tested_on": "term and late preterm subjects with hyperbilirubinemia", "experiment": "Phase 2b trial: hematology and chemistry laboratory tests (platelet counts)", "assay_type": "in vivo, human", "details": "for Platelet counts (mean), Delta: baseline to 48 hours", "description": "Safety measurements included adverse events (AEs), hematology and chemistry laboratory tests, vital sign measurements, physical examinations, dermatological assessments, hearing assessments, ophthalmological assessments, neurological assessments, and quantitative electrocardiograms (ECGs).\nAll other safety endpoints (vital sign measurements, hematology and chemistry laboratory tests, physical examination results, ECG results, etc.) were summarized by treatment group and visit. In addition, shift tables were generated for laboratory results comparing postbaseline results with baseline. Similar shift tables were generated for results of vital sign measurements."}, "[3]": {"details": "4.5 mg dose, baseline to 48 hours post dose"}}, "note": "Where “and” joins values, the source holds several entries; their conditions need not be identical. Equal entries are not always repeated. Entries after “also recorded” stand apart in the source; their conditions may differ. Marks after values point to notes of the source that are not given here."}
{"substance": "tin IV mesoporphyrin IX dichloride [Stannsoporfin]", "values": [{"measurement": "maximum duration of PT", "setting": "[1]; 1.5 mg/kg", "value": 1426, "unit": "min"}, {"measurement": "Duration of PT", "setting": "[1]; 1.5 mg/kg IM", "value": "about 20 hours"}, {"measurement": "Time to discharge, Range", "setting": "[1]; 1.5 mg/kg IM", "value": "14.6 to 143.3", "unit": "h"}, {"measurement": "subjects who received/required phototherapy (PT), n (%)", "setting": "[1]; 1.5 mg/kg IM, N = 17", "value": "3 (17.6%)"}, {"measurement": "Time to discharge, Mean", "setting": "[1]; 1.5 mg/kg IM", "value": 38, "unit": "h"}, {"measurement": "Time to PT (range)", "setting": "[1]; 1.5 mg/kg IM", "value": "5.2 to 17.8", "unit": "h"}, {"measurement": "maximum duration of PT", "setting": "[1]; 3 mg/kg", "value": 1140, "unit": "min"}, {"measurement": "Duration of PT", "setting": "[1]; 3.0 mg/kg IM", "value": "about 14 hours"}, {"measurement": "Time to discharge, Range", "setting": "[1]; 3.0 mg/kg IM", "value": "11.5 to 77.0", "unit": "h"}, {"measurement": "subjects who received/required phototherapy (PT), n (%)", "setting": "[1]; 3.0 mg/kg IM, N = 18", "value": "6 (33.3%)"}, {"measurement": "Time to discharge, Mean", "setting": "[1]; 3.0 mg/kg IM", "value": 42.8, "unit": "h"}, {"measurement": "Time to PT (range)", "setting": "[1]; 3.0 mg/kg IM", "value": "7.2 to 15.2", "unit": "h"}, {"measurement": "maximum duration of PT", "setting": "[1]; 4.5 mg/kg", "value": 990, "unit": "min"}, {"measurement": "Duration of PT", "setting": "[1]; 4.5 mg/kg IM", "value": "about 14 hours"}, {"measurement": "Time to discharge, Range", "setting": "[1]; 4.5 mg/kg IM", "value": "15 to 405.3", "unit": "h"}, {"measurement": "subjects who received/required phototherapy (PT), n (%)", "setting": "[1]; 4.5 mg/kg IM, N = 8", "value": "2 (25%)"}, {"measurement": "Time to discharge, Mean", "setting": "[1]; 4.5 mg/kg IM", "value": 48.3, "unit": "h"}, {"measurement": "Time to PT (range)", "setting": "[1]; 4.5 mg/kg IM", "value": "7.3 to 8.8", "unit": "h"}, {"measurement": "time to hospital discharge compared to placebo", "setting": "[1]; 4.5 mg/kg, largely due to 1 subject with meningitis", "value": "significantly greater"}, {"measurement": "exchange transfusions (ET) required", "setting": "[1]; all dose groups", "value": "no exchange transfusions; also recorded: no subjects requiring ET"}, {"measurement": "readmission to hospital", "setting": "[1]; all stannsoporfin dose groups", "value": "No subjects who received stannsoporfin were readmitted"}, {"measurement": "treated infants requiring subsequent phototherapy", "setting": "[1]; single 1.5 mg/kg dose", "value": 17.6, "unit": "%"}, {"measurement": "Platelet counts (mean)", "setting": "[2]; 1.5 mg/kg IM, 48 hours", "value": 234.000}, {"measurement": "Platelet counts (mean)", "setting": "[2]; 1.5 mg/kg IM, Day 14", "value": "477,000"}, {"measurement": "Platelet counts (mean), Delta", "setting": "[2]; 1.5 mg/kg IM", "value": "−31,000"}, {"measurement": "Platelet counts (mean)", "setting": "[2]; 3.0 mg/kg IM, 48 hours", "value": "220,000"}, {"measurement": "Platelet counts (mean)", "setting": "[2]; 3.0 mg/kg IM, Day 14", "value": "453,000"}, {"measurement": "Platelet counts (mean), Delta", "setting": "[2]; 3.0 mg/kg IM", "value": "−43,000"}, {"measurement": "Platelet count, individual subjects, % Change", "setting": "[2]; [3]", "value": "68.6% and 47.1% and 60.8% and 2.9% and 8.4% and 41.0%"}, {"measurement": "Platelet count, individual subjects, Delta", "setting": "[2]; [3]", "value": "−153,000 and −113,000 and −141,000 and −11,000 and −22,000 and −128,000"}, {"measurement": "Platelet counts (mean)", "setting": "[2]; 4.5 mg/kg IM, 48 hours", "value": "180,000"}, {"measurement": "Platelet counts (mean)", "setting": "[2]; 4.5 mg/kg IM, Day 14", "value": "441,000"}, {"measurement": "Platelet counts (mean), Delta", "setting": "[2]; 4.5 mg/kg IM", "value": "−85,000"}, {"measurement": "Platelet count, individual subjects", "setting": "[2]; 4.5 mg/kg dose, 48 hours post dose (n = 6)", "value": "70,000* and 127,000† and 91,000** and 368,000 and 240,000 and 184,000†"}, {"measurement": "platelets at 48 hours", "setting": "[2]; 4.5 mg/kg, all subjects, normalized by Day 14", "value": "moderate drops in platelets"}, {"measurement": "Chemistries, liver function tests and renal function tests", "setting": "[2]; 1.5 to 4.5 mg/kg IM", "value": "normal"}, {"measurement": "Platelet counts from baseline to 48 hours after administration", "setting": "[2]; all stannsoporfin doses, placebo remained stable", "value": "decreased"}, {"measurement": "average platelet counts by day 14", "setting": "[2]; all test groups", "value": "returned to the normal range"}]}
